{"source": "paper PMC10135378", "about": "“Synthesis of Novel N-Heterocyclic Carbene-Ruthenium (II) Complexes, “Precious” Tools with Antibacterial, Anticancer and Antioxidant Properties” (Antibiotics, 2023)", "key": {"[1]": {"system": "MDA-MB-231 cells", "assay": "MTT assay, anticancer activity on MDA-MB-231 cells", "format": "cell-based, human", "details": "MTT, 72 h exposure, 0.1-100 µM", "method": "(§1) The anticancer activity of all the synthesized Ru-NHC complexes (RANHC I-VI) was studied in two human breast cancer cell lines, namely the estrogen receptor positive (ER+) MCF-7 cells and the triple negative MDA-MB-231 cells (ER-, PR-, and HER-2/Neu not overexpressed), and neuroblastoma cells, i.e., SH-SY5Y. First, the cells were exposed for 72 h at different concentrations of the studied complexes (from 0.1 to 100 µM) and then their viability was checked by MTT assay.\n(§2) The adopted cells (breast cancer MCF-7 and MDA-MB-231 and human mammary epithelial MCF-10A cells) were purchased from American Type Culture Collection (ATCC, Manassas, VA, USA) and cultured as indicated. The mouse embryonic fibroblast BALB/3T3 and neuroblastoma SH-SY5Y were also obtained from American Type Culture Collection (ATCC, Manassas, VA, USA) and cultured in DMEM high glucose supplemented with 100 U mL^−1 penicillin/streptomycin and 10% bovine calf serum (BCS) or 10% fetal bovine serum (FBS), respectively.\n(§3) MTT assay (Sigma Aldrich (St. Louis, MO, USA)) was used for the in vitro anticancer activity evaluation, as previously reported. The Ru-NHC complexes were employed at different concentrations (0.1–1–10–25–50–100 μM) for 72 h. The IC50 values were calculated from the percent (%) of control using GraphPad Prism 9 (GraphPad Software, La Jolla, CA, USA)."}, "[2]": {"system": "MCF-7 cells", "assay": "MTT assay, anticancer activity on MCF-7 cells", "format": "cell-based, human", "details": "72 h exposure, 0.1-100 µM", "method": "as §1, §2, §3"}, "[3]": {"system": "SH-SY5Y cells", "assay": "MTT assay, anticancer activity on SH-SY5Y neuroblastoma cells", "format": "cell-based", "details": "72 h exposure, 0.1-100 µM", "method": "as §1, §2, §3"}, "[4]": {"system": "MCF-10A cells", "assay": "MTT assay, non-tumoral MCF-10A cells", "format": "cell-based, human", "details": "72 h exposure", "source_text": "(§4) Additionally, we investigated the selectivity of all the synthesized Ru-NHC complexes on the cancer cells by studying their capability to interfere with the growth of two non-tumoral cells, namely the MCF-10A and BALB/3T3 cells.\nas §2, §3"}, "[5]": {"system": "BALB/3T3 cells", "assay": "MTT assay, non-tumoral BALB/3T3 fibroblasts", "format": "cell-based", "details": "72 h exposure, non-tumoral mouse embryonic fibroblasts", "source_text": "as §4, §2, §3"}, "[6]": {"assay": "DPPH radical scavenging assay", "details": "30 min, room temperature, 517 nm", "method": "Generally, the DPPH radical is able to accept hydrogen radicals or an electron, turning into a stable molecule. The interaction with Ru-NHC complexes induces the reduction of DPPH radical intensity measured at 517 nm, due to the conversion of the purple DPPH radical into its corresponding yellow hydrazine form.\nThe radical scavenging properties of Ru-NHC complexes on the 1,1-diphenyl-2-picryl-hydrazil (DPPH) radical were evaluated as described by Fazio et al., with minor corrections. Then, 20 μL of each Ru complex, properly dissolved in DMSO, were mixed with methanol DPPH 0.1 mM (180 μL) in a 48-well plate obtaining […] different concentrations (10, 50, 100, 200 and 300 µg/mL). Next, 20 μL of DMSO in 180 μL of DPPH methanol solution was diluted as the control. The mixture was vigorously shaken and incubated (room temperature, 30 min, in the dark). The scavenging activity was measured at 517 nm, using a microplate reader. DPPH radical scavenging was expressed as inhibition percentages (%IDPPH) for the Ru complexes compared to the initial concentration of DPPH (control) according to the formula: %IDPPH=A0−A/A0×100 where A0 is the absorbance at 517 nm of the control reaction and A is the absorbance at 517 nm in the presence of samples.\nThe obtained IDPPH percentages allowed the IC50 values determination, using GraphPad Prism 9 software (GraphPad Inc., San Diego, CA, USA). Trolox was employed as a positive control."}, "[7]": {"assay": "ABTS radical scavenging assay", "details": "5 min, room temperature, 730 nm", "source_text": "To further analyze the Ru-NHC complexes antiradical potential, we examined their capability to interfere with the ABTS radical cation, a well-known protonated radical with a characteristic maximal absorbance at 730 nm, which diminishes with the scavenging of the radical proton. The assay measures radical scavenging by the electron donation. The outcomes in terms of ABTS% scavenging activity are reported in Figure 7 and IC50 values of Ru-NHC complexes, together with the standard Trolox, on ABTS radical are summarized in Table 3 and Table S3.\nThe radical scavenging properties of the Ru-NHC complexes on a 2,2′-azino-bis(3-ethylbenzothiazoline-6-sulfonate) radical cation (ABTS^•+) were calculated as described by Fazio et al., with few adjustments. Briefly, 2 mM ABTS and 70 mM potassium persulfate water solutions were mixed and incubated to obtain ABTS^•+ radical stock solution (16 h, room temperature, in the dark). ABTS solution was diluted in ethanol to obtain an absorbance of 0.70 ± 0.02 at 730 nm, prior to use. Then, 2 μL of each Ru-NHC complex at different concentrations, properly dissolved in DMSO, were mixed with 198 μL of the ABTS^•+ solution in a 48-well plate obtaining the following concentrations: 0.1, 1, 10, 50, and 100 µg/mL. The solutions were vigorously shaken and incubated (5 min, room temperature, in the dark). The ABTS scavenging activity was determined at 730 nm, using a microplate reader. The control was prepared mixing 2 μL of DMSO with 198 μL of the ABTS^•+ solution. The ABTS radical scavenging was expressed as inhibition percentages (%IABTS) of each complex compared to the control, according to the formula: %IABTS=A0−A/A0×100 where A0 is the absorbance at 730 nm of the control reaction and A is the absorbance at 730 nm in the presence of samples.\nIC50 values for the Ru complexes were calculated from the %IABTS using GraphPad Prism 9 software (GraphPad Inc., San Diego, CA, USA). Trolox was employed as the positive control."}, "[8]": {"system": "Escherichia coli (ATCC 25922)", "assay": "MIC/MBC broth dilution, E. coli", "format": "cell-based", "details": "control for strain sensitivity", "method": "(§5) One Gram-negative (Escherichia coli (ATCC® 25922TM)) and two Gram-positive bacterial strains (Enterococcus faecalis (ATCC® 19433TM) and Staphylococcus aureus (ATCC® 23235TM)] were used for MIC and MBC values determination, according to CLSI guidelines. MIC represents the lowest concentration of compound inhibiting the visible microbial growth and expressed as μg/mL; MBC is the lowest concentration able to kill the bacteria. Both determinations were performed by the broth dilution method. Bacteria were grown overnight in LB medium (2%), then diluted to a density of […] colony forming units (CFUs) per mL, plated in sterile 96-well microplates, obtaining about 10^5 cells/ well. Increasing concentrations of the Ru-NHC complexes (1, 10, 25, 50, 70, 100 µg/mL) were used. After incubation at 37 °C for 18 h (overnight), bacterial growth was checked at a wavelength of 600 nm using a Multiskan spectrophotometer (model Multiskan Ex Microplate; Thermo Scientific, Nyon, Switzerland) and MIC or MBC values were determined, comparing cell density with a positive control (bacterial cells grown in LB medium were added with only the vehicle, DMSO). Each experiment was carried out five times, in triplicate. Ampicillin (Sigma Aldrich A9393) was used as the control for strain sensitivity."}, "[9]": {"system": "Staphylococcus aureus (ATCC 23235)", "assay": "MIC/MBC broth dilution, S. aureus", "format": "cell-based", "details": "control for strain sensitivity", "method": "as §5"}, "[10]": {"system": "Enterococcus faecalis (ATCC 19433)", "assay": "MIC/MBC broth dilution, E. faecalis", "format": "cell-based", "details": "control for strain sensitivity", "method": "as §5"}}}
{"smiles": "N.N.[Cl][Pt][Cl]", "note": "[Cisplatin, reference compound]", "values": [{"measurement": "IC50", "setting": "[1]", "value": "32.1 ± 1", "unit": "µM"}, {"measurement": "IC50", "setting": "[2]", "value": "26.2 ± 1.1", "unit": "µM"}, {"measurement": "IC50", "setting": "[3]", "value": "18.8 ± 0.9", "unit": "µM"}, {"measurement": "IC50", "setting": "[4]", "value": "80.24 ± 0.8", "unit": "µM"}, {"measurement": "IC50", "setting": "[5]", "value": "21.6 ± 1.2", "unit": "µM"}]}
{"smiles": "Cc1c(C)c2c(c(C)c1O)CCC(C)(C(=O)O)O2", "note": "(stereo not shown) [Trolox, reference compound]", "values": [{"measurement": "IC50", "setting": "[6]", "value": "99.91 ± 0.9", "unit": "µM"}, {"measurement": "IC50", "setting": "[7]", "value": "92.3 ± 0.9", "unit": "µM"}]}
{"smiles": "CC1(C)S[C@@H]2[C@H](NC(=O)[C@H](N)c3ccccc3)C(=O)N2[C@H]1C(=O)O", "note": "[ampicillin, Ampicillin, reference compound]", "values": [{"measurement": "strain sensitivity to ampicillin, E. coli", "setting": "[8]", "value": "ampicillin-sensible"}, {"measurement": "strain sensitivity to ampicillin, S. aureus", "setting": "[9]", "value": "ampicillin-sensible"}, {"measurement": "strain sensitivity to ampicillin, E. faecalis", "setting": "[10]", "value": "ampicillin-sensible"}]}
